Reference: the NIST ThermoML archive (doi:10.1021/je049671t)

Experiment: xn = mol fraction of the nth substance listed
Conditions: Liquid, Vibrating tube method

CC(C)C [2-methylpropane] + CCCC
Conditions	mass density [kg/m3]
240 K, 468.1 kPa, x2 = 0.5	626.35
240 K, 481.6 kPa, x2 = 0.25	621.79
240 K, 499 kPa, x2 = 0.75	631.33
240 K, 989.5 kPa, x2 = 0.5	626.9
240 K, 999.5 kPa, x2 = 0.25	622.36
240 K, 1001 kPa, x2 = 0.75	631.85
240 K, 1472.5 kPa, x2 = 0.5	627.41
240 K, 1500.2 kPa, x2 = 0.75	632.38
240 K, 1503.1 kPa, x2 = 0.25	622.9
240 K, 1962.6 kPa, x2 = 0.5	627.92
240 K, 2001.8 kPa, x2 = 0.25	623.43
240 K, 2011.4 kPa, x2 = 0.75	632.88
240 K, 2468.8 kPa, x2 = 0.5	628.43
240 K, 2493.8 kPa, x2 = 0.25	623.95
240 K, 2505.1 kPa, x2 = 0.75	633.43
240 K, 2976.4 kPa, x2 = 0.5	628.95
240 K, 2987.3 kPa, x2 = 0.25	624.47
240 K, 3003.9 kPa, x2 = 0.75	633.91
240 K, 3446 kPa, x2 = 0.5	629.43
240 K, 3481.8 kPa, x2 = 0.25	624.99
240 K, 3507.2 kPa, x2 = 0.75	634.38
240 K, 3970.1 kPa, x2 = 0.25	625.5
240 K, 3982.7 kPa, x2 = 0.5	629.98
240 K, 4015.3 kPa, x2 = 0.75	634.92
240 K, 4467.2 kPa, x2 = 0.5	630.47
240 K, 4485.6 kPa, x2 = 0.25	626.03
240 K, 4509.6 kPa, x2 = 0.75	635.35
240 K, 4983.6 kPa, x2 = 0.5	630.99
240 K, 5011.3 kPa, x2 = 0.75	635.85
240 K, 5024.9 kPa, x2 = 0.25	626.58
240 K, 5486.4 kPa, x2 = 0.5	631.5
240 K, 5515.8 kPa, x2 = 0.75	636.31
240 K, 5519.2 kPa, x2 = 0.25	627.11
240 K, 5981.2 kPa, x2 = 0.5	631.99
240 K, 6023.5 kPa, x2 = 0.75	636.82
240 K, 6067.5 kPa, x2 = 0.25	627.64
240 K, 6486.1 kPa, x2 = 0.5	632.5
240 K, 6492.4 kPa, x2 = 0.75	637.29
240 K, 6517.4 kPa, x2 = 0.25	628.1
240 K, 6977 kPa, x2 = 0.25	628.56
240 K, 6981 kPa, x2 = 0.5	632.99
240 K, 6991.5 kPa, x2 = 0.75	637.75
260 K, 496.3 kPa, x2 = 0.75	610.36
260 K, 503.7 kPa, x2 = 0.25	600.66
260 K, 503.9 kPa, x2 = 0.5	605.31
260 K, 979.3 kPa, x2 = 0.25	601.29
260 K, 993.2 kPa, x2 = 0.75	610.92
260 K, 1011.2 kPa, x2 = 0.5	605.96
260 K, 1489.5 kPa, x2 = 0.75	611.52
260 K, 1490.8 kPa, x2 = 0.25	601.97
260 K, 1508.9 kPa, x2 = 0.5	606.59
260 K, 2002.5 kPa, x2 = 0.75	612.18
260 K, 2003.1 kPa, x2 = 0.25	602.64
260 K, 2010.9 kPa, x2 = 0.5	607.22
260 K, 2507.6 kPa, x2 = 0.5	607.84
260 K, 2510.1 kPa, x2 = 0.75	612.77
260 K, 2511.6 kPa, x2 = 0.25	603.29
260 K, 2993.6 kPa, x2 = 0.5	608.43
260 K, 2999.7 kPa, x2 = 0.25	603.92
260 K, 3016.5 kPa, x2 = 0.75	613.4
260 K, 3495.3 kPa, x2 = 0.75	613.93
260 K, 3505.2 kPa, x2 = 0.25	604.56
260 K, 3514 kPa, x2 = 0.5	609.08
260 K, 3991.1 kPa, x2 = 0.5	609.66
260 K, 4009.7 kPa, x2 = 0.75	614.5
260 K, 4014.1 kPa, x2 = 0.25	605.19
260 K, 4508.9 kPa, x2 = 0.5	610.27
260 K, 4519.2 kPa, x2 = 0.75	615.15
260 K, 4521 kPa, x2 = 0.25	605.82
260 K, 5018.2 kPa, x2 = 0.75	615.65
260 K, 5023.4 kPa, x2 = 0.25	606.44
260 K, 5026.4 kPa, x2 = 0.5	610.89
260 K, 5506.4 kPa, x2 = 0.25	607.02
260 K, 5512.2 kPa, x2 = 0.75	616.21
260 K, 5517.9 kPa, x2 = 0.5	611.47
260 K, 6004.4 kPa, x2 = 0.75	616.79
260 K, 6023 kPa, x2 = 0.5	612.08
260 K, 6028.5 kPa, x2 = 0.25	607.65
260 K, 6519.2 kPa, x2 = 0.25	608.25
260 K, 6526.2 kPa, x2 = 0.75	617.32
260 K, 6531.1 kPa, x2 = 0.5	612.67
260 K, 6987.3 kPa, x2 = 0.5	613.2
260 K, 7000.3 kPa, x2 = 0.25	608.81
260 K, 7024.3 kPa, x2 = 0.75	617.88
280 K, 491.4 kPa, x2 = 0.25	578.14
280 K, 494.5 kPa, x2 = 0.75	588.49
280 K, 514.1 kPa, x2 = 0.5	583.32
280 K, 997.4 kPa, x2 = 0.5	584.09
280 K, 997.5 kPa, x2 = 0.25	578.99
280 K, 997.9 kPa, x2 = 0.75	589.24
280 K, 1496 kPa, x2 = 0.25	579.79
280 K, 1499.8 kPa, x2 = 0.75	590.03
280 K, 1515.6 kPa, x2 = 0.5	584.89
280 K, 1990.8 kPa, x2 = 0.5	585.62
280 K, 1991.8 kPa, x2 = 0.75	590.76
280 K, 2009.2 kPa, x2 = 0.25	580.63
280 K, 2501 kPa, x2 = 0.75	591.51
280 K, 2510.6 kPa, x2 = 0.5	586.43
280 K, 2512.7 kPa, x2 = 0.25	581.42
280 K, 3001.9 kPa, x2 = 0.75	592.24
280 K, 3016.2 kPa, x2 = 0.5	587.2
280 K, 3023 kPa, x2 = 0.25	582.23
280 K, 3506.9 kPa, x2 = 0.25	582.98
280 K, 3511.3 kPa, x2 = 0.75	592.97
280 K, 3532.6 kPa, x2 = 0.5	587.97
280 K, 4008 kPa, x2 = 0.25	583.74
280 K, 4010.5 kPa, x2 = 0.75	593.64
280 K, 4012.8 kPa, x2 = 0.5	588.67
280 K, 4502.1 kPa, x2 = 0.75	594.34
280 K, 4504.4 kPa, x2 = 0.25	584.53
280 K, 4508.3 kPa, x2 = 0.5	589.4
280 K, 4994.2 kPa, x2 = 0.75	595.02
280 K, 5006.3 kPa, x2 = 0.25	585.27
280 K, 5025.7 kPa, x2 = 0.5	590.15
280 K, 5479.3 kPa, x2 = 0.5	590.82
280 K, 5523.8 kPa, x2 = 0.25	586.04
280 K, 5525.5 kPa, x2 = 0.75	595.77
280 K, 5942.8 kPa, x2 = 0.75	596.37
280 K, 5993.3 kPa, x2 = 0.5	591.55
280 K, 6024.7 kPa, x2 = 0.25	586.78
280 K, 6475.5 kPa, x2 = 0.75	597.09
280 K, 6510.8 kPa, x2 = 0.25	587.5
280 K, 6528.5 kPa, x2 = 0.5	592.3
280 K, 6953.9 kPa, x2 = 0.5	592.89
280 K, 6984.1 kPa, x2 = 0.25	588.18
280 K, 7039.4 kPa, x2 = 0.75	597.8
300 K, 312 kPa, x2 = 0.5	559.4
300 K, 502.9 kPa, x2 = 0.25	554.17
300 K, 505.7 kPa, x2 = 0.75	565.16
300 K, 510.2 kPa, x2 = 0.5	559.82
300 K, 983.9 kPa, x2 = 0.5	560.78
300 K, 999.4 kPa, x2 = 0.25	555.23
300 K, 1002.4 kPa, x2 = 0.75	566.11
300 K, 1493 kPa, x2 = 0.75	567.04
300 K, 1497.1 kPa, x2 = 0.25	556.26
300 K, 1509.8 kPa, x2 = 0.5	561.83
300 K, 1992.8 kPa, x2 = 0.5	562.77
300 K, 1997.4 kPa, x2 = 0.25	557.29
300 K, 2007.5 kPa, x2 = 0.75	568
300 K, 2498.6 kPa, x2 = 0.25	558.33
300 K, 2510.2 kPa, x2 = 0.75	568.9
300 K, 2513.9 kPa, x2 = 0.5	563.78
300 K, 2995.9 kPa, x2 = 0.75	569.79
300 K, 3011.4 kPa, x2 = 0.5	564.72
300 K, 3014 kPa, x2 = 0.25	559.36
300 K, 3476.1 kPa, x2 = 0.5	565.59
300 K, 3483.6 kPa, x2 = 0.75	570.68
300 K, 3510.6 kPa, x2 = 0.25	560.33
300 K, 3988.4 kPa, x2 = 0.5	566.54
300 K, 4007.7 kPa, x2 = 0.25	561.28
300 K, 4013.5 kPa, x2 = 0.75	571.62
300 K, 4453.4 kPa, x2 = 0.5	567.4
300 K, 4467 kPa, x2 = 0.75	572.38
300 K, 4513.9 kPa, x2 = 0.25	562.25
300 K, 4997.8 kPa, x2 = 0.75	573.31
300 K, 5016.3 kPa, x2 = 0.25	563.17
300 K, 5026.1 kPa, x2 = 0.5	568.4
300 K, 5472.7 kPa, x2 = 0.5	569.19
300 K, 5473.2 kPa, x2 = 0.75	574.11

mass density [kg/m3]
Conditions	240 K	260 K	280 K
x2 = 0.25	621.33	600.04	577.61
x2 = 0.5	625.96	604.76	582.79
x2 = 0.75	630.89	609.84	588.07
